In ChEMBL document CHEMBL4715821, “Discovery of 4-ethoxy-7H-pyrrolo[2,3-d]pyrimidin-2-amines as potent, selective and orally bioavailable LRRK2 inhibitors” (Bioorg Med Chem Lett, 2018):

Legend:
[1] = molecular target: Focal adhesion kinase 1 (Homo sapiens) (UniProt Q05397); test: Inhibition of wild-type human partial length FAK (D402 to R696 residues) expressed in bacterial expression system assessed as residual activity at 1 uM by Kinomescan method relative to control
[2] = molecular target: Receptor-type tyrosine-protein kinase FLT3 (Homo sapiens) (UniProt P36888); test: Inhibition of wild-type human partial length FLT3 (V592 to Y969 residues) expressed in bacterial expression system assessed as residual activity at 1 uM by Kinomescan method relative to control
[3] = molecular target: Serine/threonine-protein kinase PAK 5 (Homo sapiens) (UniProt Q9P286); test: Inhibition of PAK5 (unknown origin) assessed as residual activity at 1 uM by Kinomescan method relative to control
[4] = molecular target: Ephrin type-A receptor 1 (Homo sapiens) (UniProt P21709); test: Inhibition of wild-type human partial length EPHA1 (V588 to I913 residues) expressed in bacterial expression system assessed as residual activity at 1 uM by Kinomescan method relative to control
[5] = Lipophilicity, logD of compound at pH 7.4; details: buffer
[6] = molecular target: Beta-adrenergic receptor kinase 1 (Homo sapiens) (UniProt P25098); test: Inhibition of wild-type human full length GRK2 (M1 to L689 residues) expressed in mammalian expression system assessed as residual activity at 1 uM by Kinomescan method relative to control
[7] = molecular target: Serine/threonine-protein kinase TAO2 (Homo sapiens) (UniProt Q9UL54); test: Inhibition of wild-type human partial length TAOK2 (M1 to A320 residues) expressed in mammalian expression system assessed as residual activity at 1 uM by Kinomescan method relative to control
[8] = In vivo inhibition of LRRK2 in Han-Wistar rat assessed as reduction in Ser935 phosphorylation in lung at 10 to 100 mg/kg, po by Western blot analysis; assay type: functional; set-up: scale not given: the % may be the effect or the level left; details: dose 10-100 mg/kg
[9] = molecular target: Dual specificity mitogen-activated protein kinase kinase 1 (Homo sapiens) (UniProt Q02750); test: Inhibition of wild-type human full length MEK1 (M1 to V393 residues) expressed in mammalian expression system assessed as residual activity at 1 uM by Kinomescan method relative to control
[10] = molecular target: Cytoplasmic tyrosine-protein kinase BMX (Homo sapiens) (UniProt P51813); test: Inhibition of wild-type human full length BMX (M1 to H675 residues) expressed in bacterial expression system assessed as residual activity at 1 uM by Kinomescan method relative to control
[11] = molecular target: Protein kinase C beta type (Homo sapiens) (UniProt P05771); test: Inhibition of PKCbeta2 (unknown origin) assessed as residual activity at 1 uM by Kinomescan method relative to control
[12] = molecular target: Epidermal growth factor receptor (Homo sapiens) (UniProt P00533); test: Inhibition of wild-type human partial length EGFR (R669 to V1011 residues) expressed in bacterial expression system assessed as residual activity at 1 uM by Kinomescan method relative to control
[13] = molecular target: Serine/threonine-protein kinase PLK1 (Homo sapiens) (UniProt P53350); test: Inhibition of wild-type human partial length PLK1 (A33 to F325 residues) expressed in mammalian expression system assessed as residual activity at 1 uM by Kinomescan method relative to control
[14] = molecular target: CDK1/Cyclin E (Homo sapiens) (UniProt P06493+P24864); test: Inhibition of CDK1/Cyclin E (unknown origin) assessed as residual activity at 1 uM by Kinomescan method relative to control; assay type: protein-complex assay
[15] = molecular target: Serine/threonine-protein kinase Sgk1 (Homo sapiens) (UniProt O00141); test: Inhibition of wild-type human partial length SGK1 (I60 to L431 residues) expressed in mammalian expression system assessed as residual activity at 1 uM by Kinomescan method relative to control
[16] = molecular target: Ephrin type-B receptor 1 (Homo sapiens) (UniProt P54762); test: Inhibition of wild-type human partial length EPHB1 (P589 to T911 residues) expressed in bacterial expression system assessed as residual activity at 1 uM by Kinomescan method relative to control
[17] = molecular target: Ribosomal protein S6 kinase beta-1 (Homo sapiens) (UniProt P23443); test: Inhibition of wild-type human partial length RPS6KB1 (M1 to S421 residues) expressed in mammalian expression system assessed as residual activity at 1 uM by Kinomescan method relative to control
[18] = molecular target: MAP/microtubule affinity-regulating kinase 4 (Homo sapiens) (UniProt Q96L34); test: Inhibition of wild-type human partial length MARK4 (K29 to G340 residues) expressed in bacterial expression system assessed as residual activity at 1 uM by Kinomescan method relative to control
[19] = Dose normalized AUC (0 to t) in Han-Wistar rat blood at 10 mg/kg, po measured up to 7 hrs by UPLC-MS/MS analysis; assay type: ADME, organism-based; details: in vivo
[20] = molecular target: Ephrin type-A receptor 7 (Homo sapiens) (UniProt Q15375); test: Inhibition of wild-type human partial length EPHA7 (Y608 to S912 residues) expressed in bacterial expression system assessed as residual activity at 1 uM by Kinomescan method relative to control
[21] = molecular target: Proto-oncogene tyrosine-protein kinase ROS (Homo sapiens) (UniProt P08922); test: Inhibition of wild-type human partial length ROS1 (A1921 to N2240 residues) expressed in bacterial expression system assessed as residual activity at 1 uM by Kinomescan method relative to control
[22] = molecular target: Calcium/calmodulin-dependent protein kinase type II subunit beta (Homo sapiens) (UniProt Q13554); test: Inhibition of wild-type human partial length CAMK2B (M1 to Q380 residues) expressed in bacterial expression system assessed as residual activity at 1 uM by Kinomescan method relative to control
[23] = molecular target: Homeodomain-interacting protein kinase 1 (Homo sapiens) (UniProt Q86Z02); test: Inhibition of wild-type human partial length HIPK1 (M146 to I555 residues) expressed in mammalian expression system assessed as residual activity at 1 uM by Kinomescan method relative to control
[24] = molecular target: Serine/threonine-protein kinase Nek11 (Homo sapiens) (UniProt Q8NG66); test: Inhibition of wild-type human partial length NEK11 (M1 to E313 residues) expressed in mammalian expression system assessed as residual activity at 1 uM by Kinomescan method relative to control
[25] = molecular target: Mitogen-activated protein kinase kinase kinase 12 (Homo sapiens) (UniProt Q12852); test: Inhibition of wild-type human full length DLK (M1 to P859 residues) expressed in mammalian expression system assessed as residual activity at 1 uM by Kinomescan method relative to control
[26] = molecular target: Tyrosine-protein kinase Fgr (Homo sapiens) (UniProt P09769); test: Inhibition of wild-type human partial length FGR (L233 to T529 residues) expressed in bacterial expression system assessed as residual activity at 1 uM by Kinomescan method relative to control
[27] = molecular target: Protein kinase C eta type (Homo sapiens) (UniProt P24723); test: Inhibition of PKCeta (unknown origin) assessed as residual activity at 1 uM by Kinomescan method relative to control

Tyrosine-protein kinase Fgr (Homo sapiens), sequence (P09769 2-529 limits assumed): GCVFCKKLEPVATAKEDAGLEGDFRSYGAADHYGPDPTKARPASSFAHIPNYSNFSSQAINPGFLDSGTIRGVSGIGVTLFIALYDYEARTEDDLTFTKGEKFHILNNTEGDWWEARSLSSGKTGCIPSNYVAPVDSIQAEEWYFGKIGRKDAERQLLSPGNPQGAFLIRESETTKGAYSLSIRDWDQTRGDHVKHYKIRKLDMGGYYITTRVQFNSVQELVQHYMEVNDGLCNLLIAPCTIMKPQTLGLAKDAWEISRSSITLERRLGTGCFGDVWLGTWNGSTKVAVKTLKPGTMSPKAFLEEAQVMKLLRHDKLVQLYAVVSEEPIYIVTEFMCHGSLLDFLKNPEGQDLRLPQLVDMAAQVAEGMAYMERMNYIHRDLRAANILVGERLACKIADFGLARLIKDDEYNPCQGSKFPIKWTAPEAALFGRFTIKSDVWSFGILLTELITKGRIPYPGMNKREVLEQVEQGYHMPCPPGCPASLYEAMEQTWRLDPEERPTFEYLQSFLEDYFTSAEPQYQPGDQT
Dual specificity mitogen-activated protein kinase kinase 1 (Homo sapiens), sequence (Q02750 whole entry, the tested form may be a part): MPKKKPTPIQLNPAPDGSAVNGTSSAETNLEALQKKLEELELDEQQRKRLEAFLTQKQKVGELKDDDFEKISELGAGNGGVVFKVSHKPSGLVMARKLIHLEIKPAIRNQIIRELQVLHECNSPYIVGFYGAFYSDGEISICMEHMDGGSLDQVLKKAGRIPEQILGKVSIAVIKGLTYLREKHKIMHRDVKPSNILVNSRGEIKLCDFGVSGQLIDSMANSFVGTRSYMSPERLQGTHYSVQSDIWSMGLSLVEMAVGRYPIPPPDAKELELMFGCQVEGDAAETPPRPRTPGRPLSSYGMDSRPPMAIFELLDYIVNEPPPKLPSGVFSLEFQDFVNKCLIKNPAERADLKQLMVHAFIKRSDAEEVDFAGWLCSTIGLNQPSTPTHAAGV
Epidermal growth factor receptor (Homo sapiens), sequence (P00533 whole entry, the tested form may be a part): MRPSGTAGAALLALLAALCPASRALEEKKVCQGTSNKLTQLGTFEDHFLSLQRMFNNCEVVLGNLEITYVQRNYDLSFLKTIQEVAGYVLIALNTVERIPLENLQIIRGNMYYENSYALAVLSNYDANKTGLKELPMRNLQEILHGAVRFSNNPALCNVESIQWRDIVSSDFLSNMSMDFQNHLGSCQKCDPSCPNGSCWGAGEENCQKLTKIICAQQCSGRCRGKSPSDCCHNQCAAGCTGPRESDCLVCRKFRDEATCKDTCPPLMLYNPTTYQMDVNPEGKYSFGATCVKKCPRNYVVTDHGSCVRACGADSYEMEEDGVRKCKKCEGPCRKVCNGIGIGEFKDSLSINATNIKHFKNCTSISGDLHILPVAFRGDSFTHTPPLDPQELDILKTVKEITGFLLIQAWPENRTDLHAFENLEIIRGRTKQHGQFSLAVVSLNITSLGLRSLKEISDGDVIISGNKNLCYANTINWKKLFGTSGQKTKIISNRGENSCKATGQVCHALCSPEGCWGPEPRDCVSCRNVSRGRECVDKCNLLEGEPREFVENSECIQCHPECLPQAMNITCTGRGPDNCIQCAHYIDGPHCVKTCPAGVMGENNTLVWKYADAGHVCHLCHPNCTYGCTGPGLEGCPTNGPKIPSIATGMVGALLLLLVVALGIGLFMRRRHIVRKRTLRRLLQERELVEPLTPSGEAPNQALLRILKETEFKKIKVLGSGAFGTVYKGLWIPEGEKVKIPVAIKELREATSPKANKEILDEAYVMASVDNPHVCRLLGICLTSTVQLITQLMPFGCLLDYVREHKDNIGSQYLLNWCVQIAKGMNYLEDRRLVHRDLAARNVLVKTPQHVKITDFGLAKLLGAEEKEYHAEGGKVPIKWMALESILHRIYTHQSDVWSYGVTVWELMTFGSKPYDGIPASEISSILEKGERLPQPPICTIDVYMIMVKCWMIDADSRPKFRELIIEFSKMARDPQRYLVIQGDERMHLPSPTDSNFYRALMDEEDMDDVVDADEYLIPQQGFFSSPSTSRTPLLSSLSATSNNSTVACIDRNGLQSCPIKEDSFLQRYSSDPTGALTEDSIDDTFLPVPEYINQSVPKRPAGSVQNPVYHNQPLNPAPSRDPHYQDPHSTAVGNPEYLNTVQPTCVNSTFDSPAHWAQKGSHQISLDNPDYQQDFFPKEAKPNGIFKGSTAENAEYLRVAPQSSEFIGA
Serine/threonine-protein kinase Sgk1 (Homo sapiens), sequence (O00141 whole entry, the tested form may be a part): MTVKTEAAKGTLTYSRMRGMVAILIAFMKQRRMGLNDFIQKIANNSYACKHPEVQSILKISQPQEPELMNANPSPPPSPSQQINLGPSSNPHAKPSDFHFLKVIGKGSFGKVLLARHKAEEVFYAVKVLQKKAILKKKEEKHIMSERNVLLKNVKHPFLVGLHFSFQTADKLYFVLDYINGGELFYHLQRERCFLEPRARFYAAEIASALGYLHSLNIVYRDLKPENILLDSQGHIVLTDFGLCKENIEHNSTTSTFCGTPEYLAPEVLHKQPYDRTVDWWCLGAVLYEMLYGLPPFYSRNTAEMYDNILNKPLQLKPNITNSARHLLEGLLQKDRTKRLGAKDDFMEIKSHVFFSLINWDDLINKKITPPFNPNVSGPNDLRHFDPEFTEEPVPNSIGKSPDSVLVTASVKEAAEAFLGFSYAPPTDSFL
Ephrin type-A receptor 7 (Homo sapiens), sequence (Q15375 28-998 limits assumed): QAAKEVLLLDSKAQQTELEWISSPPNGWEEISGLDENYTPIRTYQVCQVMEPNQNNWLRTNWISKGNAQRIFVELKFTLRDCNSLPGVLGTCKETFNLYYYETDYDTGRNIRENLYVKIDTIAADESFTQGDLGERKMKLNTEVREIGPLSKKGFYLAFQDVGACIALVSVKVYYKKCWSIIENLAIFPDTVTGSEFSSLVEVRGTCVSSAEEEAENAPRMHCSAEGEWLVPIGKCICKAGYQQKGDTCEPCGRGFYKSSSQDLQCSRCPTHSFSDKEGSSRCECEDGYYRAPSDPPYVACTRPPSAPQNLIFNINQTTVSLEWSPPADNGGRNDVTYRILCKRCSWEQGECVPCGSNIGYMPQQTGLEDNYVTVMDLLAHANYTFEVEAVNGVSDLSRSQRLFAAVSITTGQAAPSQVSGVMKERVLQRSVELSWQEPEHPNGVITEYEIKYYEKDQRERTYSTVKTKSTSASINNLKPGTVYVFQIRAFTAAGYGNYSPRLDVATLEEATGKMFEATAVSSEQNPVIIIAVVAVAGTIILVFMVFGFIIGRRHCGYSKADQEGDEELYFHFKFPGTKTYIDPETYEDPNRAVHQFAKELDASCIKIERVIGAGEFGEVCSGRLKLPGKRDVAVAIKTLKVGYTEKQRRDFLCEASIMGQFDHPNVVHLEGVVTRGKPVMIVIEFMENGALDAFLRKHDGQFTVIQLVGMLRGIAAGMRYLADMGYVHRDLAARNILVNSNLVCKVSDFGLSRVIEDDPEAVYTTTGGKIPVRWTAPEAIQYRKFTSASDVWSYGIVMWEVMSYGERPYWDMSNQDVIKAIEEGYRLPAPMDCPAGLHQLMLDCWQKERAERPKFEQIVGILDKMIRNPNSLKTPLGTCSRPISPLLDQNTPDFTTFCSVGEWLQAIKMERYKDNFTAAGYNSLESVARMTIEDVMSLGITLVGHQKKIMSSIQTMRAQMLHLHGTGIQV
Ribosomal protein S6 kinase beta-1 (Homo sapiens), sequence (P23443 whole entry, looked up, the tested form may be a part): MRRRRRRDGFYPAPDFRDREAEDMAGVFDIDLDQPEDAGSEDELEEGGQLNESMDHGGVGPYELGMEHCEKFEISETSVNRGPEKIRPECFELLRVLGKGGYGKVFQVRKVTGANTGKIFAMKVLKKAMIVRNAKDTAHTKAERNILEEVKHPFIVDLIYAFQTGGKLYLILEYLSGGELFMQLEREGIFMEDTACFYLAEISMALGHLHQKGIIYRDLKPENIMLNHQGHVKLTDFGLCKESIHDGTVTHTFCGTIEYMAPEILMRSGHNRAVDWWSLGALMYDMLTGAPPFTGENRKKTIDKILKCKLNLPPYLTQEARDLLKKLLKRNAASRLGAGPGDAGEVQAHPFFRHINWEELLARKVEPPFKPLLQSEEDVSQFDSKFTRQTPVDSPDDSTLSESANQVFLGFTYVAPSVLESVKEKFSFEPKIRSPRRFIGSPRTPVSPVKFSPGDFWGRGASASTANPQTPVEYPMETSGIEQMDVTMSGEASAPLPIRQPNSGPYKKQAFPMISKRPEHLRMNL
Cytoplasmic tyrosine-protein kinase BMX (Homo sapiens), sequence (P51813 whole entry, the tested form may be a part): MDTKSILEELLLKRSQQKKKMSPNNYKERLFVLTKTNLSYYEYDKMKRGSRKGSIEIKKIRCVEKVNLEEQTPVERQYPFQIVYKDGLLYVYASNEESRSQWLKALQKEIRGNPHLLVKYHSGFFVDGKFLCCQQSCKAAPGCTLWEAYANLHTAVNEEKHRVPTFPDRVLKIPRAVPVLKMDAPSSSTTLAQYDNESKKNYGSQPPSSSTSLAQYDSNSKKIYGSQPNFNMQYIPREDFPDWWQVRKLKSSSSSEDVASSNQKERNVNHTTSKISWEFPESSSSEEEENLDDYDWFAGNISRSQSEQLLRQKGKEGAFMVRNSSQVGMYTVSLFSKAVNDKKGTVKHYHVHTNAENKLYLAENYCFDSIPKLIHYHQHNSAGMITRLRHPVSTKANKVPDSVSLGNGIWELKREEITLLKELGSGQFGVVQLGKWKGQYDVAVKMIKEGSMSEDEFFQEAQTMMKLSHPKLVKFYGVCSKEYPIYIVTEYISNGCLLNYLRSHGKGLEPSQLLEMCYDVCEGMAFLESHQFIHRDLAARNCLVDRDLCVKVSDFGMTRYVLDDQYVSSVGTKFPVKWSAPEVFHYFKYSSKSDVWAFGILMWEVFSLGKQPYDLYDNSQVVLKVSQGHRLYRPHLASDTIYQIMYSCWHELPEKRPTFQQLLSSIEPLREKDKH

SMILES: CCOc1nc(Nc2ccc(C(=O)N3CCOCC3)cc2OC)nc2[nH]ccc12
- Activity [1]: 39.5%
- Activity [2]: 92.6%
- Activity [3]: 105%
- Activity [4]: 95.5%
- logD [5]: 4.5
- Activity [6]: 100%
- Activity [7]: 103%
- Activity [8]: 100%
- Activity [9]: 100%
- Activity [10]: 92.5%
- Activity [11]: 89.1%
- Activity [12]: 99.6%
- Activity [13]: 87.8%
- Activity [14]: 96.4%
- Activity [15]: 96.6%
- Activity [16]: 100%
- Activity [17]: 104%
- Activity [18]: 101%
- AUCt/dose [19]: 1034 ng·h/g/mg/kg
- Activity [20]: 97.8%
- Activity [21]: 52.5%
- Activity [22]: 92.6%
- Activity [23]: 108%
- Activity [24]: 86.5%
- Activity [25]: 93.9%
- Activity [26]: 104%
- Activity [27]: 99.2%
